The source of these data is patent publication US20230250064A1, “PREPARATION METHOD FOR FUSED PYRAZOLE-TYPE COMPOUND” (SHANGHAI MEIYUE BIOTECH DEVELOPMENT CO., LTD., priority 2020, published 2023).

The target of this assay is T1, human IRAK4 (Homo sapiens, UniProt Q9NWZ3).
T1 construct: purchased Carna
T1 sequence (Q9NWZ3 1-460): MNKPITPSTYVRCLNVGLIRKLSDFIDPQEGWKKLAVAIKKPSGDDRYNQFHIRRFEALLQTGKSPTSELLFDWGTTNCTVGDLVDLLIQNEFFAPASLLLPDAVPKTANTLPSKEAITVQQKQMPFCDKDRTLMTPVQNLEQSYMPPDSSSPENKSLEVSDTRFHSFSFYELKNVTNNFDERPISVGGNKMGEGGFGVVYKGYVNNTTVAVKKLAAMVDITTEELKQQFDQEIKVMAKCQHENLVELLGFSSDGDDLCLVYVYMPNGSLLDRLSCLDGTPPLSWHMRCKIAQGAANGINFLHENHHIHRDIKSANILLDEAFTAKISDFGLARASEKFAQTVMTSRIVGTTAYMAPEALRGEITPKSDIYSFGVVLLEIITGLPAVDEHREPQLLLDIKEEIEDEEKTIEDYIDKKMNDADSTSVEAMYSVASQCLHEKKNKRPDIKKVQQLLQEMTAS
Kind of assay: IRAK4 MSA (Mobility-Shift Assay), inhibition of human IRAK4 kinase activity. It counts as biochemical. The conditions noted are these: GST-IRAK4 1 nM, ATP at Km concentration (37 μM), 28° C. for 1 h, Caliper EZ Reader; read-out: IC50 against human IRAK4 kinase activity. The method, then: The inhibitory activity of the compounds against IRAK4 at the Km concentration of ATP was measured in IRAK4 MSA (Mobility-Shift Assay, a mobility detection of microfluidic chip technology).
A recombinant fusion protein of N-terminal GST (glutathione-S-transferase) and human IRAK4 was used as enzyme (GST-IRAK4, kinase IRAK4 (Carna)) at a final concentration of 1 nM; ATP (Sigma) was at a final concentration of 37 μM; the substrates used for the kinase reaction were 5-FAM (5-carboxyfluorescein)-labeled polypeptide (5-FAM-IPTSPITTTYFFFKKK-COOH) and substrate peptide FAM-P8 (GL Biochem) at final concentrations of 5 μM.
In this assay, a 500 μM stock solution of the compounds was prepared in 100% DMSO, and serially 4-fold diluted to the 10th concentrations with 100% DMSO, followed by a 10-fold dilution with the compound buffer (50 mM HEPES, pH 7.5, 0.00015% Brij-35) to give intermediate dilutions of the compounds at final concentrations of 10 μM-0.04 nM containing 10% DMSO. The intermediate dilutions was transferred into a black 384-well plate at a volume of 5μL.
Kinase IRAK4 was diluted to 2.5 nM with the kinase buffer (50 mM HEPES, pH 7.5, 0.00015% Brij-35, 2 mM DTT). 10 μL of the IRAK4 dilution was transferred to the 384-well plate and co-incubated with the compound for 10-15 min.
The substrate and ATP were diluted to 12.5 μM and 92.5 μM with reaction buffer (50 mM HEPES, pH 7.5, 0.00015% Brij-35, 10 mM MgCl2), respectively. 10 μL of the dilutions was transferred to the 384-well plate and incubated at 28° C. for 1 h. The reaction was terminated by adding 25 μL of 50 mM EDTA to the 384-well plate.
The inhibition rates of IRAK4 by the compounds were calculated by measuring the conversion rate of phosphorylation of the substrate using a Caliper EZ Reader (PerkinElmer) and the IC50 was calculated by XL-fit software.

What is called IC50 is the concentration needed to halve the response being measured. On to `COc1cc2nn([C@H]3C[C@H](C(C)(C)O)C3)cc2cc1NC(=O)c1cccc(C(F)(F)F)n1` [Compound 1, 6-trifluoromethyl-pyridine-2-carbomoylic acid {2-[3′-(1-hydroxy-1-methyl-ethyl)-cyclobutyl]-6-methoxy-2H-indazol-5-yl} -amide], for which the IC50 was determined as 1.1 nM. `COc1cc2nn([C@H]3CC[C@H](O)CC3)cc2cc1NC(=O)c1cccc(C2CC2)[n+]1[O-]` [Compound 2, 6-cyclopropyl-1-oxy-pyridine-2-carbomoylic acid [2-(4′-hydroxy-trans-cyclohexyl)-6-methoxy-2H-indazol-5-yl]-amide]: the IC50 stood at 2.5 nM. As for `COc1cc2nn([C@H]3CC[C@](C)(O)CC3)cc2cc1NC(=O)c1cccc(C)[n+]1[O-]` [Compound 4, 6-methyl-1oxo-pyridine-2-carbomoylic acid [2-(4′-hydroxy-4-methyl-cyclohexyl)-6-methoxy-2H-indazol-5-yl]-amide], the IC50 came out at 4.6 nM. As for “quinoline-8-carbomoylic acid [2-(4′-hydroxy-4-methyl-cyclohexyl)-6-methoxy-2H-indazol-5-yl]-amide [Compound 3]”, the half-maximal inhibitory concentration (IC50) turned out to be 3.3 nM.
